Measurements as given in ChEMBL document CHEMBL1201862, “PubChem BioAssay data set” (2004).
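Protocol summary: plate cells (96-well), add compound at 5 concentrations, incubate 48 h, interpolate endpoints linearly. The concentration for 50% growth inhibition is given as GI50.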 The source made the active and inactive calls. Cut-off read from the data, not from the text of the source: active = GI50 up to about 1.1 µM and inactive = higher.

Tests used:
Experiment in all cases: NCI-60 cell line screen, 48 h
A498 = test system: A498
ACHN = test system: ACHN
NCI-H23 = test system: NCI-H23
SW-620 = test system: SW-620
IGROV-1 = test system: IGROV-1
SNB-19 = test system: SNB-19
HCT-116 = test system: HCT-116
EKVX = test system: EKVX
U-251 = test system: U-251
OVCAR-4 = test system: OVCAR-4
UACC-257 = test system: UACC-257
HT-29 = test system: HT-29
RPMI-8226 = test system: RPMI-8226
SF-539 = test system: SF-539
OVCAR-8 = test system: OVCAR-8
SK-MEL-28 = test system: SK-MEL-28
MDA-MB-435 = test system: MDA-MB-435
SK-OV-3 = test system: SK-OV-3
RXF 393 = test system: RXF 393
K562 = test system: K562

Measured: GI50

OCC1OC(n2cnc3c2N=CNC[C@H]3O)C(Cl)C1O (stereo not given in full)
inactive: A498 > 100 µM | ACHN > 100 µM | NCI-H23 > 100 µM | SW-620 > 100 µM | IGROV-1 > 100 µM | SNB-19 > 100 µM | HCT-116 > 100 µM | EKVX > 100 µM | U-251 > 100 µM | OVCAR-4 > 100 µM | UACC-257 > 100 µM | HT-29 > 100 µM | RPMI-8226 > 100 µM | SF-539 > 100 µM | OVCAR-8 > 100 µM | SK-MEL-28 > 100 µM | MDA-MB-435 > 100 µM

O=c1/c(=C/c2ccccn2)sc2nc3cc4c(cc3n12)OCCO4
inactive: A498 > 100 µM | ACHN > 100 µM | NCI-H23 > 100 µM | SW-620 > 100 µM | SK-OV-3 > 100 µM | IGROV-1 > 100 µM | SNB-19 > 100 µM | HCT-116 > 100 µM | U-251 > 100 µM | OVCAR-4 > 100 µM | UACC-257 > 100 µM | HT-29 > 100 µM | RXF 393 > 100 µM | RPMI-8226 > 100 µM | OVCAR-8 > 100 µM | K562 > 100 µM | SK-MEL-28 > 100 µM | MDA-MB-435 > 100 µM

CC(O)(/C=C/c1ccccc1)P(=O)(O)c1ccccc1 (stereo not given)
inactive: A498 > 100 µM | ACHN > 100 µM | NCI-H23 > 100 µM | SW-620 > 100 µM | SK-OV-3 > 100 µM | IGROV-1 > 100 µM | SNB-19 > 100 µM | HCT-116 > 100 µM | EKVX > 100 µM | U-251 > 100 µM | OVCAR-4 > 100 µM | UACC-257 > 100 µM | HT-29 > 100 µM | RXF 393 > 100 µM | SF-539 > 100 µM | OVCAR-8 > 100 µM | K562 > 100 µM | SK-MEL-28 > 100 µM | MDA-MB-435 > 100 µM

Cc1cccc(C)c1N1C(=O)C2c3[nH]c4ccccc4c3C3CCC(C(C)(C)C)CC3C2C1=O (stereo not given)
inactive: A498 15.7 µM | ACHN 12.4 µM | NCI-H23 14.8 µM | SW-620 5.74 µM | SK-OV-3 54.5 µM | IGROV-1 15 µM | SNB-19 62.4 µM | HCT-116 9.25 µM | EKVX 7.16 µM | U-251 16.8 µM | UACC-257 16.5 µM | HT-29 10.3 µM | RXF 393 8.97 µM | RPMI-8226 19.3 µM | SF-539 17.5 µM | OVCAR-8 17 µM | K562 9.06 µM | SK-MEL-28 19.9 µM | MDA-MB-435 11.4 µM

CC1(C)OC2C(CO)OC(n3cnc(N)nc3=O)C2O1 (stereo not given)
inactive: A498 > 100 µM | ACHN > 100 µM | NCI-H23 > 100 µM | SW-620 > 100 µM | SK-OV-3 > 100 µM | IGROV-1 > 100 µM | SNB-19 > 100 µM | HCT-116 > 100 µM | EKVX > 100 µM | U-251 > 100 µM | UACC-257 > 100 µM | RXF 393 > 100 µM | RPMI-8226 > 100 µM | SF-539 > 100 µM | OVCAR-8 > 100 µM | K562 > 100 µM | SK-MEL-28 > 100 µM | MDA-MB-435 > 100 µM

CC1(C)CCCCCCCCCC(C)(CCCO)C1=O (stereo not given)
inactive: A498 18.5 µM | ACHN 17.9 µM | NCI-H23 15.5 µM | SW-620 19.7 µM | SK-OV-3 17.4 µM | IGROV-1 17.4 µM | SNB-19 17.8 µM | HCT-116 17.3 µM | EKVX 15.8 µM | U-251 16.8 µM | OVCAR-4 15.5 µM | UACC-257 17.7 µM | HT-29 13.7 µM | RXF 393 19.7 µM | RPMI-8226 26.5 µM | OVCAR-8 18.4 µM | K562 24.6 µM | SK-MEL-28 18.2 µM | MDA-MB-435 18.2 µM

O=c1[nH]c(N/N=C\C(O)C(O)C(O)CO)nc2ccccc12 (stereo not given)
inactive: A498 > 100 µM | ACHN > 100 µM | NCI-H23 > 100 µM | SW-620 > 100 µM | SK-OV-3 > 100 µM | IGROV-1 > 100 µM | SNB-19 > 100 µM | HCT-116 > 100 µM | EKVX > 100 µM | U-251 > 100 µM | UACC-257 > 100 µM | HT-29 > 100 µM | RPMI-8226 > 100 µM | SF-539 > 100 µM | OVCAR-8 > 100 µM | K562 > 100 µM | SK-MEL-28 > 100 µM | MDA-MB-435 > 100 µM

Cc1ccc(/C(O)=C/c2nc3ccccc3oc2=O)cc1
inactive: A498 78.3 µM | ACHN 58.1 µM | NCI-H23 72.1 µM | IGROV-1 > 100 µM | SNB-19 > 100 µM | HCT-116 75.3 µM | EKVX > 100 µM | U-251 > 100 µM | OVCAR-4 > 100 µM | UACC-257 > 100 µM | HT-29 > 100 µM | RXF 393 > 100 µM | SF-539 > 100 µM | OVCAR-8 38.4 µM | K562 27.4 µM | MDA-MB-435 25.6 µM

C=CCC1(O)C(=O)OC2C(O)COC21O (stereo not given)
inactive: A498 > 100 µM | ACHN > 100 µM | NCI-H23 > 100 µM | SW-620 > 100 µM | SK-OV-3 > 100 µM | IGROV-1 > 100 µM | SNB-19 > 100 µM | HCT-116 > 100 µM | EKVX > 100 µM | U-251 > 100 µM | OVCAR-4 > 100 µM | UACC-257 > 100 µM | HT-29 > 100 µM | RXF 393 > 100 µM | SF-539 > 100 µM | OVCAR-8 > 100 µM | K562 > 100 µM | SK-MEL-28 23 µM | MDA-MB-435 > 100 µM

C=CCOCn1cnc2c(N)ncnc21
inactive: A498 > 100 µM | ACHN > 100 µM | NCI-H23 > 100 µM | SW-620 > 100 µM | SK-OV-3 > 100 µM | IGROV-1 > 100 µM | SNB-19 > 100 µM | HCT-116 > 100 µM | EKVX > 100 µM | U-251 > 100 µM | OVCAR-4 > 100 µM | UACC-257 > 100 µM | HT-29 > 100 µM | RPMI-8226 > 100 µM | SF-539 > 100 µM | OVCAR-8 > 100 µM | K562 > 100 µM | SK-MEL-28 > 100 µM | MDA-MB-435 > 100 µM

Cc1cc(=O)[nH]c2cc(NC(=O)C(CCCNC(=N)N)NC(=O)OCc3ccccc3)ccc12 (stereo not given)
inactive: A498 > 100 µM | ACHN > 100 µM | NCI-H23 > 100 µM | SW-620 > 100 µM | SK-OV-3 4.28 µM | IGROV-1 > 100 µM | SNB-19 > 100 µM | HCT-116 > 100 µM | EKVX > 100 µM | U-251 > 100 µM | OVCAR-4 > 100 µM | UACC-257 > 100 µM | HT-29 > 100 µM | SF-539 > 100 µM | OVCAR-8 > 100 µM | K562 > 100 µM | SK-MEL-28 > 100 µM | MDA-MB-435 > 100 µM
